Source: patent publication US11357783B2 (CAREGEN CO., LTD., priority 2016, dated 2022)

What was measured:
[1] = Solubility test in distilled water; assay type: physicochemical; settings: 10 mg/ml
[2] = tested on: 5α reductase; experiment: Effect on 5α reductase activity: testosterone reacted with liver cell extracts, testosterone and DHT by HPLC; assay type: biochemical; settings: 1 hour at 37° C.
Procedure: The reactant of putting the liver cell extracts in testosterone and reacting it for 1 hour at 37° C. is the control. After the reaction is completed, the amount of testosterone and DHT were confirmed through HPLC. The HPLC analysis was carried out under the following conditions. • C18 column • UV 240 nm • flow rate: 1 mi/minute • mobile phase: A: 0.1% Formic acid in water • B: 0.1% Formic acid in acetonitrile • gradient: 0 min B 5%˜30 min B 80%

Compound: CC(C)(C)NC(=O)[C@H]1CC[C@H]2[C@@H]3CC[C@H]4NC(=O)C=C[C@]4(C)[C@H]3CC[C@]12C [finasteride, N-(1,1-dimethylethyl)-3-oxo-(5α,17β)-4-azaandrost-1-ene-17-carboxamide]
- solubility in water [1]: hardly dissolved in water
- concentration of DHT compared with the control [2]: decreased
- concentration of testosterone compared with the control [2]: increased
